Results on four compounds are retold here after patent US9630925B2, “HSP90 inhibitor and preparation method and use thereof” (priority 2010, dated 2017).

The subject of data set [1] is Herpes Simplex Virus Type I Strain F (HSV-1 F). Description: Plaque reduction assay (PRA), HSV-1. The data set is classed as cell-based. The conditions noted are these: for IC50: Human alphaherpesvirus 1, plaque reduction, Vero, n = 3, read-out: Antiviral activity HSV-1 IC50. The procedure: (§1) In this example, the Vero cell line (ATCC CCL81, purchased from ATCC, US) was used as the normal cell.
(§2) The Vero cells were cultured to a monolayer on 24 well plates. […] The virus solutions were suck out and discarded. […] After observing for 72 hours, they were fixed for 30 minutes with 10% formaldehyde, stained for 30 minutes with 1% crystal violet, rinsed with water, and dried. The plaques were counted with reference to Nitta's method, and the plaque inhibition rate was calculated.
(§3) A curve graph was plotted with the logarithmic value of the drug concentration as the horizontal coordinate, and the plaque inhibition rate as the vertical coordinate.
A general note: Plaques are areas of infected cells; plaque reduction assays count them against a control.

In data set [2] the test system is Herpes Simplex Virus Type II Strain 333 (HSV-2 333). Description: Anti-HSV-2 activity by CPE method. Particulars: HSV-2, Vero, 48 hours. Type of data set: cell-based. From the text: (§4) In this example, the Vero cell line (ATCC CCL81, purchased from ATCC, US) was used as the normal cell. […] The cytopathic effect (CPE) was then observed under an optical microscope.

Data set [3] shares this test system. The data set can be described thus: Plaque reduction assay (PRA), HSV-2. The data set is classed as cell-based. The conditions noted are these: for IC50: Human alphaherpesvirus 2, plaque reduction, Vero, n = 3, read-out: Antiviral activity HSV-2 IC50. As to the method:
as §1, §2, §3

Data set [4] concerns human breast cancer cells (MCF-7). Description: MTT proliferation inhibition, MCF-7.
Data set [5] deals with human laryngeal epithelial cancer cells (Hep-2). The data set can be described thus: MTT proliferation inhibition, Hep-2.
Data set [6] deals with human malignant melanoma cells (A375). Description: MTT proliferation inhibition, A375.
Data set [7] has as its system human cervical carcinoma cells (Hela). Description: MTT proliferation inhibition, Hela.
Data set [8] concerns Vero cells. The data set can be described thus: in vitro. The procedure: (§5) The cells were cultured overnight, and the culture solutions were discarded. […] Then the Vero cells were incubated for an additional 48 hours. The ATP levels in the Vero cells and the AK release quantity in the supernatant of the culture solutions were determined using kits from Lonza, US (Vialight HS kit and Toxilight bioassay kit). The maximum non-toxic concentration of the drug on the Vero cells within 48 hours were then assayed. The positive drug 17-AAG was used as control in the experiment (starting from 10 μM, double dilution of 6 concentrations).

Data set [9] deals with human chronic myeloid leukemia cells (K562). The data set can be described thus: MTT proliferation inhibition, K562.
The subject of data set [10] is Hsp90. The conditions noted are these: background statement; cited from earlier work.
Data set [11] concerns Herpes Simplex Virus Type 1 Strain F (HSV-1 F). Description: Anti-HSV-1 activity by CPE method. Type of data set: cell-based. Particulars: HSV-1, Vero, 48 hours.
Excerpt: as §4

Data set [12] is described as follows: in vitro. The conditions noted are these: African green monkey. The procedure:
as §5

As for `Nc1nc2c(ncn2COCCO)c(=O)[nH]1` [ACV, Acyclovir, reference compound], the half-inhibitory concentration (IC50) in [1] was 4.16 ± 1.02 µM; in data set [3], 3.32 ± 0.44 µM. For the same compound, the CPE entry in [2] (0.16 μM) and in [2] (0.31 μM) was “++ (26%-50% ++)” each time.
Regarding `C=CCNC1=C2C[C@@H](C)C[C@H](OC)[C@H](O)[C@@H](C)/C=C(\C)[C@H](OC(N)=O)[C@@H](OC)/C=C\C=C(/C)C(=O)NC(=CC1=O)C2=O` [Compound 17-AAG, 17-allylaminogeldanamycin, reference compound], the IC50 in [4] (MCF-7, MTT, 48 hours) was found to be 3.24 ± 0.15 µM; in data set [5] (Hep-2, MTT, 48 hours) it was 2.33 ± 0.3 µM; in [6] (A375, MTT, 48 hours), 3.13 ± 0.15 µM; in data set [7] (Hela, MTT, 48 hours) it was 5.42 ± 0.18 µM; in data set [9] (K562, MTT, 48 hours), 2.43 ± 0.68 µM. This compound displayed a maximum non-toxic concentration in [8] (Vero cells, 48 hours) of 0.63 µM.
For the compound `CO[C@@H]1[C@@H](OC(N)=O)[C@@H](O)[C@H](Oc2ccc3c(O)c(NC(=O)c4ccc(O)c(CC=C(C)C)c4)c(=O)oc3c2C)OC1(C)C` [Novobiocin], in data set [10], the “concentration used as an inhibitor of Hsp90” value is given as “up to 700 μM”.
As to `CC(=O)OC(CC(=O)OC1CCC(Nc2cc(-n3nc(C)c4c3CC(C)(C)CC4=O)ccc2C(N)=O)CC1)C[N+](C)(C)C.[Cl-]` (stereo not shown) [Xbj-B16-1, 2-(4-(3-acetylcarnitineacyloxy)cyclohexylamino)-4-(1-(3,6,6-trimethyl-4-oxy-4,5,6,7-terahydroindazole))benzamide], the IC50 worked out at 9.53 ± 2.03 µM in data set [4] (Homo sapiens, MCF7, 48 h); 2.96 ± 0.56 µM in [1]; 6.37 ± 2.13 µM in [5] (Homo sapiens, HEp-2, 48 h); 7.23 ± 1.31 µM in data set [6] (Homo sapiens, A-375, 48 h); 10.3 ± 2.48 µM in [7] (Homo sapiens, HeLa, 48 h); 3.2 ± 0.33 µM in data set [3]. Also, in [9] (Homo sapiens, K562, 48 h), the IC50 came to 8.31 ± 1.78 µM. Further, in data set [1] (TC50/IC50), the “HSV-1 TI (therapeutic index, TC50/IC50)” value is recorded as 16.14. The CPE result in [2] (0.39 μM) is “++++ (76%-100% ++++)”; in data set [2] (0.78 μM), “++++ (76%-100% ++++)”; in data set [2] (1.56 μM), “++++ (76%-100% ++++)”; in data set [2] (3.13 μM) it was “+++ (51%-75% +++)”; in [2] (6.25 μM), “+++ (51%-75% +++)”; in data set [2] (12.5 μM), “+ (0-25% +)”. Further, the CPE entry in [11] (0.39 μM) is reported as “++++ (76%-100% ++++)”; in data set [11] (0.78 μM), “++++ (76%-100% ++++)”; in data set [11] (1.56 μM), “++++ (76%-100% ++++)”; in data set [11] (3.13 μM), “+++ (51%-75% +++)”; in data set [11] (6.25 μM), “++ (26%-50% ++)”. The compound further returned a CC50 at 48 h in [12] of 47.8 ± 3.53 µM. The “Toxity TC0 (the maximum non-toxic concentration)” value in data set [8] (African green monkey, 48 h) amounted to 12.5 µM. This compound showed a maximum non-toxic concentration in data set [8] (African green monkey, 48 h) of 12.5 µM. Also, the “HSV-2 TI (therapeutic index, TC50/IC50)” value in data set [3] (TC50/IC50) is 14.93.

For orientation: IC50 means the concentration needed to halve the response being measured.
